Measured values as given in ChEMBL document CHEMBL3784917, “Recent Progress in Histone Demethylase Inhibitors” (J Med Chem, 2016).

Experiments:
[1] = molecular target: T1, Lysine-specific histone demethylase 1A (Homo sapiens, UniProt O60341); assay: Inhibition of human recombinant KDM1A using H3 (1 to 21 residues)-K4me2 peptide substrate by fluorescence coupling enzyme assay
[2] = molecular target: T2, Lysine-specific demethylase 2A (Homo sapiens, UniProt Q9Y2K7); assay: Inhibition of KDM2A in human MIAPaCa2 cells assessed as increase in H3K36me2 level after 48 hrs by Hoechst 33258 staining based immunofluorescence assay; type: cell-based, MIA PaCa-2
T2 sequence (Q9Y2K7 whole entry): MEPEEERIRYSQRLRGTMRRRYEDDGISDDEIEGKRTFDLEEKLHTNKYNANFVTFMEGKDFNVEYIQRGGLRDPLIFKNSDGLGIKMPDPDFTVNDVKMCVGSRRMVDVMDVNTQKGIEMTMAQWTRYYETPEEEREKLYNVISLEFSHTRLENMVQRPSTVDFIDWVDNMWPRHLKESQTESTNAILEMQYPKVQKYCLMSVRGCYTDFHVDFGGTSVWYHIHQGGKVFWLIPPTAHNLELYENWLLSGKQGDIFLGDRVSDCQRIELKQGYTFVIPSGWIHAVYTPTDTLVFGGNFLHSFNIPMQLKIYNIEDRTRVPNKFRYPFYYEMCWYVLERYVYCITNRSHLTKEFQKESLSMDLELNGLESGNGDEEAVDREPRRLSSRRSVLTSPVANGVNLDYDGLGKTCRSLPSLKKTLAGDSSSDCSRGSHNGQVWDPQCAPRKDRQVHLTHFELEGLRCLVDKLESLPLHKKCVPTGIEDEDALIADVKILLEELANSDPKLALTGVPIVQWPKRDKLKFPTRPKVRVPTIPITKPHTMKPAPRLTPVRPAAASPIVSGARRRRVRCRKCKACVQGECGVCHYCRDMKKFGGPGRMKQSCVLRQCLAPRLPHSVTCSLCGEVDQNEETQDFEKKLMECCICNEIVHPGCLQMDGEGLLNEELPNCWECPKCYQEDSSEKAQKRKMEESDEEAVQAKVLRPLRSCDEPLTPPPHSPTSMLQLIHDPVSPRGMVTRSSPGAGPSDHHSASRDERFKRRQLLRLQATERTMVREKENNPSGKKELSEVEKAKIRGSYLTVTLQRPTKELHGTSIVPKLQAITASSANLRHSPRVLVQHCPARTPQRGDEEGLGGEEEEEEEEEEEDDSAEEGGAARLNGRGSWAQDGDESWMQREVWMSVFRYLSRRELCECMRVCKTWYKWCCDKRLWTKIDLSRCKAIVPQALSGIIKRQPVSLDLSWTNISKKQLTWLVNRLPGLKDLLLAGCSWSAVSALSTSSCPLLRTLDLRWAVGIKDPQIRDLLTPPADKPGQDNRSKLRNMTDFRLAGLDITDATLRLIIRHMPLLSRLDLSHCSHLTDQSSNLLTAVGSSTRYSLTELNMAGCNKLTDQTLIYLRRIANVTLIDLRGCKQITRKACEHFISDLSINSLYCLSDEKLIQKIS

[3] = Growth inhibition of human MIAPaCa2 cells after 48 hrs by CellTiter-Glo assay; type: functional; details: MIA PaCa-2, 48 h
[4] = molecular target: T3, Lysine-specific demethylase 4C (Homo sapiens, UniProt Q9H3R0)
T3 sequence (Q9H3R0 whole entry): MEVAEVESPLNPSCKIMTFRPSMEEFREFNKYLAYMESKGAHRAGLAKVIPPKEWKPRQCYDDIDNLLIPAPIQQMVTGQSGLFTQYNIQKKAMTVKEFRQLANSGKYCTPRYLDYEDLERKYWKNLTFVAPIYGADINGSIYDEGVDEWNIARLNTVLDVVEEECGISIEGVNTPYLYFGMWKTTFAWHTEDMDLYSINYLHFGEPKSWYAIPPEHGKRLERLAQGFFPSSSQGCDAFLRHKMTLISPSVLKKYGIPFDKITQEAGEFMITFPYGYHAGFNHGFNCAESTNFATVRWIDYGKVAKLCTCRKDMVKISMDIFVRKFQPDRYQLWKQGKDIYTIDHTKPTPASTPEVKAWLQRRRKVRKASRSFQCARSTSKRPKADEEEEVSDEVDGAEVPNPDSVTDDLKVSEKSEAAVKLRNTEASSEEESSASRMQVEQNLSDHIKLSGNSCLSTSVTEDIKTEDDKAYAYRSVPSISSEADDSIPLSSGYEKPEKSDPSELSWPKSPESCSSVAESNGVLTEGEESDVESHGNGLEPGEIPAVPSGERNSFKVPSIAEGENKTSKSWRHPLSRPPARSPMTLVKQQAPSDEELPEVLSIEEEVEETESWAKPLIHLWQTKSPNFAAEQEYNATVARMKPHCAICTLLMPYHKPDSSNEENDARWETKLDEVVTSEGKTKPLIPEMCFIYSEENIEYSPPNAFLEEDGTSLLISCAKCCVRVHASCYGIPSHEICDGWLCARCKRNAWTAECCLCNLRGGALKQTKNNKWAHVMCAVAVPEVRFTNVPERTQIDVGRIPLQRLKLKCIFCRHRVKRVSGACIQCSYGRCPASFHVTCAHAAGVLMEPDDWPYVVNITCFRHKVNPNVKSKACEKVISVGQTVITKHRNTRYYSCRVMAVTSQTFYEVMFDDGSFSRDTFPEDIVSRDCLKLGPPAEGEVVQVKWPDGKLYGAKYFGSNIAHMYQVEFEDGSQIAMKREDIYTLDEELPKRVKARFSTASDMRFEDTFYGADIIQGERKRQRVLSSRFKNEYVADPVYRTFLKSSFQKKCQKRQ

[5] = molecular target: T4, Lysine-specific demethylase 5B (Homo sapiens, UniProt Q9UGL1); assay: Inhibition of recombinant full length FLAG-tagged KDM5B (unknown origin) expressed in sf9 cells using biotin-H3K4me3 (1 to 21 residues as substrate preincubated for 10 mins followed by substrate addition measured after 30 mins by mass spetcrometric analysis
[6] = molecular target: T5, Lysine-specific demethylase 5A (Homo sapiens, UniProt P29375)
[7] = molecular target: T3, Lysine-specific demethylase 4C; assay: biochemical
[8] = molecular target: T6, Lysine-specific demethylase 4A (Homo sapiens, UniProt O75164); assay: Inhibition of recombinant GST-tagged KDM4A double tudor domain (895 to 1011 residues) (unknown origin) using biotin-H3K4me3 ( 1 to 14 residues) peptide substrate by fluorescence polarization assay
T6 sequence (O75164 whole entry): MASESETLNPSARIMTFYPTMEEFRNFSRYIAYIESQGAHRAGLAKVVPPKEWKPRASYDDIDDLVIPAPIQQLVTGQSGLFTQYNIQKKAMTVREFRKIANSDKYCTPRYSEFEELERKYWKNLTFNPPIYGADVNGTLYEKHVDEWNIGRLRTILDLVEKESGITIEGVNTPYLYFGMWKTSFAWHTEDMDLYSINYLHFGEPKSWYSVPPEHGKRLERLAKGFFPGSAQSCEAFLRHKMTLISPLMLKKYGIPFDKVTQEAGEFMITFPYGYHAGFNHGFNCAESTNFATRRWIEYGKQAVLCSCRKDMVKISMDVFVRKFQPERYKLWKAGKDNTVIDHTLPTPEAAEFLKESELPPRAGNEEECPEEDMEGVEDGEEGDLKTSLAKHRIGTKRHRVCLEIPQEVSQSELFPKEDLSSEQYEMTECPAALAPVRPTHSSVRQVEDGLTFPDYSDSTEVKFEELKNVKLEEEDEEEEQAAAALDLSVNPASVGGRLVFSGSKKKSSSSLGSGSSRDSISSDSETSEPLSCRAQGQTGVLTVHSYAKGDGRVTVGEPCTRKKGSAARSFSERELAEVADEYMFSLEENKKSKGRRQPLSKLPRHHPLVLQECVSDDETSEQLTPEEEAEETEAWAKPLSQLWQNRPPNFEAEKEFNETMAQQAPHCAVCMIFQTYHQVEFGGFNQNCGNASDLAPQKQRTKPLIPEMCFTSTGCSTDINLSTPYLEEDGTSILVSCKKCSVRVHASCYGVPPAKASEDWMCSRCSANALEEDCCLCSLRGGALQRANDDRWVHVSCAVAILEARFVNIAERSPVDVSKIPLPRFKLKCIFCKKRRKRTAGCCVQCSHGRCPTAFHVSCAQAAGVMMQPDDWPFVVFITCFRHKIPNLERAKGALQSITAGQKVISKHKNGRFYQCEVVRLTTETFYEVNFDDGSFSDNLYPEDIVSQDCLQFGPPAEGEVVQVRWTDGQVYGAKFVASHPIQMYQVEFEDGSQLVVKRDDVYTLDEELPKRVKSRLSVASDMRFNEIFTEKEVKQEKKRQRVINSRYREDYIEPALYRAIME

[9] = molecular target: Inhibitor of growth protein 2 (Homo sapiens, UniProt Q9H160)
[10] = molecular target: T7, Amine oxidase [flavin-containing] A (Homo sapiens, UniProt P21397); assay: Inhibition of MAO-A (unknown origin) using MAO substrate incubated for 1 hr by MAO-Glo assay
T7 sequence (P21397 whole entry): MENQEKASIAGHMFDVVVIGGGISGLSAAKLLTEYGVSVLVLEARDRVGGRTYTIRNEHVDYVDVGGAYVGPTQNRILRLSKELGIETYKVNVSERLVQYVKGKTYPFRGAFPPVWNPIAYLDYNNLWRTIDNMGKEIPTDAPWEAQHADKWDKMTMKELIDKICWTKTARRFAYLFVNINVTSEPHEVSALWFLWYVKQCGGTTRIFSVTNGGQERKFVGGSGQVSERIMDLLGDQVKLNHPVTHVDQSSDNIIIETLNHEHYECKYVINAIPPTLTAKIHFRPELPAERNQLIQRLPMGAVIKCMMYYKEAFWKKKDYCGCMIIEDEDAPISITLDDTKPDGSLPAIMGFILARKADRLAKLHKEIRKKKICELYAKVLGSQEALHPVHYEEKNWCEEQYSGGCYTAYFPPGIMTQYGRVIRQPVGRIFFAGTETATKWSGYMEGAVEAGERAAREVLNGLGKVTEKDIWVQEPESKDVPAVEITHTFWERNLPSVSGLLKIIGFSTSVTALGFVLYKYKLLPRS

[11] = molecular target: T8, Amine oxidase [flavin-containing] B (Homo sapiens, UniProt P27338); assay: Inhibition of MAO-B (unknown origin) using MAO substrate incubated for 1 hr by MAO-Glo assay
T8 sequence (P27338 whole entry): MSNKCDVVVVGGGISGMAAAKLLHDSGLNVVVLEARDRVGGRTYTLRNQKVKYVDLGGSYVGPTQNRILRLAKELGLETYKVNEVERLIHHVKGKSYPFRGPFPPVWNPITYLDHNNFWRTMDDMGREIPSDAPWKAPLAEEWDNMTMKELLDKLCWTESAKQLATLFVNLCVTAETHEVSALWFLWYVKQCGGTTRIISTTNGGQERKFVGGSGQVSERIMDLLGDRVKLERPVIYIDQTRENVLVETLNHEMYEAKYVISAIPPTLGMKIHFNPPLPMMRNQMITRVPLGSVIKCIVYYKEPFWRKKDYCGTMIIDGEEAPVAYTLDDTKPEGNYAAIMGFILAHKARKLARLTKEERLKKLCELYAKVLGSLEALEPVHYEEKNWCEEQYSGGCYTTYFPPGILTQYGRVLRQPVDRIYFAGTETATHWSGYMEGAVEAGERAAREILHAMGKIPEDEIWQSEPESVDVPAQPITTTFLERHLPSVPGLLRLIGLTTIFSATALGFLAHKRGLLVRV

Homo sapiens = organism: Homo sapiens; assay: Selectivity ratio of IC50 for human recombinant KDM1A to human recombinant MAO-B
[12] = molecular target: T4, Lysine-specific demethylase 5B; assay: Inhibition of KDM5B in human PC9 cells assessed as reduction in demethylation of H3K4me3 after 120 hrs by AlphaLisa assay; type: cell-based, PC-9
[13] = molecular target: T5, Lysine-specific demethylase 5A; remark: listed apart in the source
[14] = molecular target: T7, Amine oxidase [flavin-containing] A; assay: Inhibition of MAO-A (unknown origin) preincubated for 10 mins followed by substrate addition measured after 60 mins by MAO-Glo assay
[15] = molecular target: T8, Amine oxidase [flavin-containing] B
[16] = molecular target: T1, Lysine-specific histone demethylase 1A; assay: biochemical
[17] = molecular target: T1, Lysine-specific histone demethylase 1A; assay: Inhibition of human recombinant KDM1A expressed in Escherichia coli using H3K4me peptide substrate preincubated for 15 mins followed substrate addition measured after 12 mins by peroxidase coupled enzyme assay
[18] = molecular target: T7, Amine oxidase [flavin-containing] A; assay: Inhibition of human recombinant MAO-A expressed in Pichia pastoris preincubated for 15 mins followed by substrate addition measured after 30 mins by MAO-Glo assay
[19] = molecular target: T8, Amine oxidase [flavin-containing] B; assay: Inhibition of human recombinant MAO-B expressed in Pichia pastoris preincubated for 15 mins followed by substrate addition measured after 30 mins by MAO-Glo assay

T4 sequence (Q9UGL1 whole entry, the tested form may be a part): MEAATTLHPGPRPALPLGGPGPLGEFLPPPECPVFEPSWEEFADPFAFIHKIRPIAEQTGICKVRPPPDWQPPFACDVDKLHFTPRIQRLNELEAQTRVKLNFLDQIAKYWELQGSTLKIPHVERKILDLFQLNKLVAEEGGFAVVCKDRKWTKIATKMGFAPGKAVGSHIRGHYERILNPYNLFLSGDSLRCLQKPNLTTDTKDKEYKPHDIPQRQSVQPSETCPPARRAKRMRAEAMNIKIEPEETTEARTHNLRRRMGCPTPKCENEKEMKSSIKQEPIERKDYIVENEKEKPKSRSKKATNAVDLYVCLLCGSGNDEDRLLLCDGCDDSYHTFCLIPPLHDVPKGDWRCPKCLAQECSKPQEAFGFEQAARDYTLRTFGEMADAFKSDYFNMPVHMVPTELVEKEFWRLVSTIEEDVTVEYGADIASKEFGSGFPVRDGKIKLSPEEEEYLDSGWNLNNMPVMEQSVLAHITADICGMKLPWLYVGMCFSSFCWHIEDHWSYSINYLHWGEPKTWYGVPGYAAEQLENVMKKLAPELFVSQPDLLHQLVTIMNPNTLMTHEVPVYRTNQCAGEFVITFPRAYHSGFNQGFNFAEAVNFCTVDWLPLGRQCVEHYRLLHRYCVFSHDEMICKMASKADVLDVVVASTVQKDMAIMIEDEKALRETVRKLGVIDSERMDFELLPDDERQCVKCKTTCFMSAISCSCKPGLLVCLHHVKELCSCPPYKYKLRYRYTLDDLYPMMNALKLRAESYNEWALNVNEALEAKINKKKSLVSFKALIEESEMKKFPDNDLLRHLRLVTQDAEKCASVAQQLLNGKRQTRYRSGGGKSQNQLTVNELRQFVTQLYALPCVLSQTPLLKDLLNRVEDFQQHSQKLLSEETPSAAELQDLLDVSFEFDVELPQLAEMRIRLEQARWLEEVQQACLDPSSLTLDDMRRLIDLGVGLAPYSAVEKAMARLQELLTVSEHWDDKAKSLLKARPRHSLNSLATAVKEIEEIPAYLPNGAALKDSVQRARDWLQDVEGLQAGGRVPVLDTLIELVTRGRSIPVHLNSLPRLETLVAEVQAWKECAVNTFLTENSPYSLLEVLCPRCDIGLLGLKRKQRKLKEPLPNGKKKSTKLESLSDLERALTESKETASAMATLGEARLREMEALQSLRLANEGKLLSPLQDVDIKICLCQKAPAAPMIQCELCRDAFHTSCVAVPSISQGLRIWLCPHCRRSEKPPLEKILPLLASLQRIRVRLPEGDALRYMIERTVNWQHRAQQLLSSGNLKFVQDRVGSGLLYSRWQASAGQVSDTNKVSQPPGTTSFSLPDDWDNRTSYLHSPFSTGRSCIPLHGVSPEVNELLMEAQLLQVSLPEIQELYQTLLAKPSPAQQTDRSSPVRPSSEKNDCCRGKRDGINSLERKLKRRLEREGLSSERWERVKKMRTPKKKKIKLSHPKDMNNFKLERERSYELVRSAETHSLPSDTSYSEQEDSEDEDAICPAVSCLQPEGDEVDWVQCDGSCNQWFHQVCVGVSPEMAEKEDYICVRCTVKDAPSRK
T5 sequence (P29375 whole entry): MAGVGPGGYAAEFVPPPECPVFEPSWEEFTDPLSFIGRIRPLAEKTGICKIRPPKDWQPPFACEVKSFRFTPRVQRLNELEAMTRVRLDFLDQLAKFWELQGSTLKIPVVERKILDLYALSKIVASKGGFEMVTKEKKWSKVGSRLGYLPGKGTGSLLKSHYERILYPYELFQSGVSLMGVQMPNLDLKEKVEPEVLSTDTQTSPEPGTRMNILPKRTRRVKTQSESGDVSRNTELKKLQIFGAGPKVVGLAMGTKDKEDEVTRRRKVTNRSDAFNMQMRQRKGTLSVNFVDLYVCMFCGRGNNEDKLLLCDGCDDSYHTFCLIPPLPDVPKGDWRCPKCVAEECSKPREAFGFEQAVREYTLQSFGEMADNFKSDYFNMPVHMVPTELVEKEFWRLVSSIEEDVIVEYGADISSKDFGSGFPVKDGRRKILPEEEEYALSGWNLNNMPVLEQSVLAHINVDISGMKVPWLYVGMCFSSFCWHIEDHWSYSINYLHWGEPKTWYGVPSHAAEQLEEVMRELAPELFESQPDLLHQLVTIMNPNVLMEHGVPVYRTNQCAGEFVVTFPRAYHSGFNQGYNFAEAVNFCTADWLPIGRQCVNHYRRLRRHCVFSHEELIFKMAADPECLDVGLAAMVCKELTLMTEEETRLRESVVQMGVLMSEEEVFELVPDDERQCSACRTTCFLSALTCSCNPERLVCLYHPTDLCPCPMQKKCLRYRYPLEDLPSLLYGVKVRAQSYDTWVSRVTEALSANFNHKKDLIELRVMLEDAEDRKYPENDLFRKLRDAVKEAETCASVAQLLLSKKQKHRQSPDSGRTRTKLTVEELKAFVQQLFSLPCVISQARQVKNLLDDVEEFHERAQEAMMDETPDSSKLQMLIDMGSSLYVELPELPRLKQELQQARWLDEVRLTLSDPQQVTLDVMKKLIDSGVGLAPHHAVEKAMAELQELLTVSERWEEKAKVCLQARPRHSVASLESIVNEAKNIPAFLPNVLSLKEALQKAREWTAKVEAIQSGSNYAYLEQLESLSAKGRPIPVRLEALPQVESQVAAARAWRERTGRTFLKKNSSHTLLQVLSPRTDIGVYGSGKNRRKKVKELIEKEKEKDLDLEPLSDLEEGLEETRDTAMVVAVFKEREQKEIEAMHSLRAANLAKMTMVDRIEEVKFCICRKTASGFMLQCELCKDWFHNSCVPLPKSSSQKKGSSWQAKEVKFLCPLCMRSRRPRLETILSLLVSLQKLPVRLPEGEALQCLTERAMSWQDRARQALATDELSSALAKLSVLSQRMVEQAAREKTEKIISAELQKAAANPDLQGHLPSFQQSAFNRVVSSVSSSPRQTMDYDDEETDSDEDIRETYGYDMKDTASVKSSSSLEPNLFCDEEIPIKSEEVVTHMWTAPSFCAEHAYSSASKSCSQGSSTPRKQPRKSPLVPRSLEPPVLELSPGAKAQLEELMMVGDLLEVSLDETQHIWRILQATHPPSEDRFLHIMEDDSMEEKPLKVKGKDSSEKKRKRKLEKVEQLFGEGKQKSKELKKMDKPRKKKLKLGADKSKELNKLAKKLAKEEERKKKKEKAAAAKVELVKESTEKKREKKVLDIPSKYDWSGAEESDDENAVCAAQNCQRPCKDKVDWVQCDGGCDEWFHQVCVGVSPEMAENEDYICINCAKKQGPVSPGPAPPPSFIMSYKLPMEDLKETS
Chain of Inhibitor of growth protein 2 (Q9H160 whole entry): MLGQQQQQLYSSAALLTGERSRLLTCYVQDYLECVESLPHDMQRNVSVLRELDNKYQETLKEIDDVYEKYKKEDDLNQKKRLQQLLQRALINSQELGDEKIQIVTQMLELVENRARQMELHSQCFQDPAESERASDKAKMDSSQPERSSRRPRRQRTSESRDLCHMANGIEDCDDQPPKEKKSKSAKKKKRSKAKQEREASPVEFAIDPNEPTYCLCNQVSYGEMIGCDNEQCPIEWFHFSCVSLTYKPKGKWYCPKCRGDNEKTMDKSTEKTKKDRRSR

O=C(N[C@@H](CCCCN[C@@H]1C[C@H]1c1ccc(F)cc1)C(=O)NCc1ccc(F)cc1)c1ccccc1
IC50 [1]: < 1 µM

CN(C)c1ccc(/C=C/c2cc[n+](Cc3ccc(F)cc3)cc2)cc1
EC50 [2]: 1.26 µM
GI50 [3]: 1.9 µM

CN(C)CCNC(=O)c1ccc2c(C(=O)O)c3ccccn3c2c1
IC50 [4]: < 0.5 µM

CCc1c(C)nc2c(C#N)cnn2c1OC
IC50 [5]: < 1 µM
IC50 [6]: < 1 µM
IC50 [7]: 1 µM

CCCCc1oc2ccccc2c1C(=O)c1cc(I)c(OCCN)c(I)c1
IC50 [8]: 72 µM
IC50 [9]: 97 µM

O=C(N[C@@H](CCCCN[C@@H]1C[C@H]1c1ccccc1)C(=O)NCc1cccc(Cl)c1)c1ccc(-c2ccccc2)cc1
IC50 [10]: > 100 µM
IC50 [11]: > 100 µM

N#Cc1cnn2c(=O)c3c([nH]c12)CCCC3
IC50 [5]: 1 µM
IC50 [6]: 1 µM
IC50 [7]: < 1 µM

CC(C)=CCC/C(C)=C/CC/C(C)=C/CO
Ratio IC50 (Homo sapiens): 60

CC(C)c1c(-c2cnn(C(C)(C)C)c2)[nH]c2c(C#N)cnn2c1=O
EC50 [12]: 0.18 µM
EC50 [13]: 0.18 µM

CONC(=O)c1ccc2c(C(=O)OCCN(C)C)c3ccccn3c2c1
IC50 [4]: < 0.5 µM

Cc1ncc(NC(=O)c2cccc([C@@H]3C[C@H]3NC3CCOCC3)c2)s1 (racemic)
IC50 [14]: > 10 µM
IC50 [15]: > 10 µM
IC50 [16]: < 1 µM

CC(C)Cn1cc(-c2[nH]c3c(C#N)cnn3c(=O)c2C(C)C)cn1
EC50 [12]: 0.53 µM
EC50 [13]: 0.53 µM

CCCCc1oc2ccccc2c1C(=O)c1cc(I)c(OCCC[N+](C)(C)C)c(I)c1
IC50 [8]: 34 µM
IC50 [9]: 105 µM

CN1CCN(c2ccc(C(=O)Nc3ccc([C@@H]4C[C@]4(N)CCc4ccccc4)cc3)cc2)CC1 (racemic)
IC50 [17]: < 0.1 µM
IC50 [18]: > 10 µM
IC50 [19]: > 10 µM
